Read-outs that look alike come from different tables or passages of the source.
Legend:
[1] = test system: absorption of sodium from the intestinal lumen; assay: Inhibition of intestinal sodium absorption in mice; type: in vivo; settings: CD-1 mice, 15 mg/kg oral gavage twice daily; for Fecal fluid content (Δ from vehicle): day 3, change from vehicle group mean; for response vs control in vivo at 15 mg/kg: Mus musculus, 72 h, day 3, normalized to dietary sodium intake
Experimental: Urinary and fecal sodium excretions were measured to assess the ability of selected example compounds to inhibit the absorption of sodium from the intestinal lumen. In addition, an assessment of the absence or presence of diarrhea in response to compound treatment was made. Approximately eight-week old, male, CD-1 mice were purchased from Envigo (Livermore, Calif.), were housed 6 per cage and acclimated for at least 48 hours before study initiation. Animals were fed Harlan Teklad Global TD.160470 rodent chow (Madison, Wis.), standard laboratory rodent chow Harlan Teklad Global 2018 with the addition of 0.4% inorganic phosphorous. […] To initiate the study, mice were weighed and then individually placed in metabolic cages. Following a 3-day acclimation period to the metabolic cage, a 24-hr baseline collection of urine and feces was performed. […] Each day, measurements of body weight. 24-hour food intake, water intake, urine volume and wet fecal weight were recorded, along with any observation of diarrhea. Fecal samples were dried using a lyophilizer for at least 3 days, following which dry weight was recorded and fecal fluid content was calculated based on the difference between the wet and dry stool weights. Fecal fluid content on day 3 of compound treatment was calculated as a change from the vehicle group mean. For urine samples, the volumes were determined gravimetrically. Feces and urine were analyzed for sodium content by microwave plasma-atomic emission spectroscopy or ion chromatography, respectively. Urine samples were analyzed on an ion chromatography system (Thermo Fisher ICS-3000 or ICS-5000+) coupled with conductivity detectors. Chromatographic separation of cations was performed using an IonPac CS12A (Thermo Fisher) 2×250 mm analytical column with an isocratic elution using […] methanesulfonic acid. Concentrations were interpolated from a a standard curve (prepared in 10 mM HCl) for sodium ion based on retention time and peak area. Fecal sample analysis by Microwave Plasma Atomic Emission Spectrometry (MP-AES). Dry fecal samples were ground into a fine powder on a homogenizer and the ground samples (400-600 mg aliquots weighed) were digested with nitric acid by microwave method (Mars 6). These digested samples were diluted with 1% Nitric acid and analyzed on Agilent 4100 MP-AES. Concentrations were calculated relative to a standard curve (prepared in 1% Nitric acid) for sodium based on the signal intensity. Sodium was detected at a wavelength of 588.995 nm. Twenty-four-hour urinary sodium excretion (ma/24-hours) was calculated by multiplying urinary sodium concentration by 24-hour urine volume. Twenty-four-hour fecal sodium excretion (mg/24-hours) was calculated by multiplying fecal sodium concentration by 24-hour dry fecal weight. The urinary and fecal sodium excretion on day 3 of compound treatment were normalized to dietary sodium intake and expressed as a percentage of the vehicle mean.

[2] = test system: human ileum monolayer culture; assay: Sustained inhibition of apical acid secretion in human organoid monolayer cell cultures (ileum); type: cell-based; settings: Homo sapiens, 48 h; 1 μM apical, dosed day 6, apical media pH day 8, vs DMSO
Experimental: (§1) Basal media (BM) consisted of advanced DMEM/F12 containing 10 mM HEPES Invitrogen, 15630-080), 1:100 Glutamax (Invitrogen, 35050-061), and 1:100 penicillin/streptomycin (Invitrogen, 15140-122). Supplemented basal media (SBM) contained 1:100 N2 (Invitrogen, 17502-048), 1:50 B27 (Invitrogen, 12587-010), 1 mM N-acetylcysteine (Sigma, A9165), and 10 nM [Leu15]-gastrin I (Sigma, G9145). Growth factors used included 50 ng per mL mouse EGF (Peprotech, 315-09), 100 ng per mL mouse noggin (Peprotech, 250-38), 500 ng per mL human R-spondin 1 (R&D, 4645-RS), 100 ng per mL mouse Wnt-3a (R&D, 1324-WN), 20 μM. Y-27632 (Tocris, 1254), 10 mM nicotinamide (Sigma, N0636), 500 nM A83-01 (Tocris, 2939), 10 μM SB202190 (Tocris, 1264). Transwells were 0.4 μm pore polyester membrane 24-well Transwell inserts (Corning). Cultures were incubated at 37° C. in 5% CO2.
(§2) Human ileum organoids were cultured in WENRNAS (Wnt, EGF, noggin, R-spondin1, Nicotinamide, A83-01, SB202190) and typically grown for 7-12 days before being used to plate monolayer cultures. On day 0, organoid cultures embedded in Matrigel were treated with TrypLE Express to break organoids into small pieces and/or single cells. The cells were resuspended to 0.5×10^6 cells/mL in SBM containing WENRAY (Wnt, EGF, noggin, R-spondin1, A83-01, Y-27632). Following this step, 200 μL of cell suspension was plated into the apical side of a 24-well Transwell (100,000 cells/well) and 600 μL of SBM with WENRAY was added to the basolateral side. Ileum cells were differentiated with ENRA (EGF, noggin, R-spondin 1, A83-01) on day 3. The color of apical compartment turns from pink or orange to yellow due to the increase in NHE3 expression after differentiation.
(§3) Each human ileum monolayer culture well was washed twice with fresh SBM on the apical side on day 6 before compound dosing. All compound stocks were 10 mM dissolved in DMSO. Each compound stock was individually mixed with fresh SBM to reach final compound concentration 1 μM and dosed only on the apical side of the monolayer (total volume 200 μl). DMSO at the equivalent concentration was used as the vehicle control. Duplicate wells were dosed for each compound. On day 8, apical media pH was measured by pH electrode, to determine the ability of example compounds to produce sustained inhibition of NHE3 activity in a human monolayer culture system by preventing proton secretion into the apical compartment.

[3] = test system: human duodenum monolayer culture; assay: Sustained inhibition of apical acid secretion in human organoid monolayer cell cultures (duodenum); type: cell-based; settings: Homo sapiens
Experimental: as §1, §3
as §2, with “Human duodenum” for “Human ileum”, “side. Duodenum” for “side. Ileum”, “with ENA” for “with ENRA”, “noggin,” for “noggin, R-spondin 1,”

[4] = read-out: Fecal Na Excretion (% of vehicle)
[5] = read-out: Urinary Na Excretion (% of vehicle)

SMILES | Fecal fluid content (Δ from vehicle) [1] | response vs control in vivo at 15 mg/kg [1, 4] [%] | response vs control in vivo at 15 mg/kg [1, 5] [%] | inhibition at 1 µM [2] [%] | inhibition at 1 µM [3] [%]
Cc1cc(S(=O)(=O)N[C@@H]2CCN(CCOCCNC(=O)NCCCCNC(=O)NCCOCCN3CC[C@@H](NS(=O)(=O)c4ccc(O[C@H]5c6cc(Cl)cc(C#N)c6C[C@@H]5N(C)C)c(C)c4)C3)C2)ccc1O[C@H]1c2cc(Cl)cc(C#N)c2C[C@@H]1N(C)C [Example 55, 3-(2-[2-[(3R)-3-[(4-[[(1S,2S)-6-Chloro-4-cyano-2-(dimethylamino)-2,3-dihydro-1H-inden-1-yl]oxy]-3-methylbenzene)sulfonamido]pyrrolidin-1-yl]ethoxy]ethyl)-1-(4-[[(2-[2-[(3R)-3-[(4-[[(1S,2S)-6-chloro-4-cyano-2-(dimethylamino)-2,3-dihydro-1H-inden-1-yl]oxy]-3-methylbenzene)sulfonamido]pyrrolidin-1-yl]ethoxy]ethyl)carbamoyl]amino]butyl)urea] | B (5-10) | 150 to 200 | > 70 | < 50 | 50 to 70
Cc1cc(Cl)cc2c1C[C@H](N1CCNCC1)[C@H]2Oc1ccc(S(=O)(=O)NCCOCCOCCNC(=O)NCCCCNC(=O)NCCOCCOCCNS(=O)(=O)c2ccc(O[C@H]3c4cc(Cl)cc(C)c4C[C@@H]3N3CCNCC3)cc2)cc1 [Example 34, 3-[2-(2-[2-[(4-[[(1S,2S)-6-Chloro-4-methyl-2-(piperazin-1-yl)-2,3-dihydro-1H-inden-1-yl]oxy]benzene)sulfonamido]ethoxy]ethoxy)ethyl]-1-[4-([[2-(2-[2-[(4-[[(1S,2S)-6-chloro-4-methyl-2-(piperazin-1-yl)-2,3-dihydro-1H-inden-1-yl]oxy]benzene)sulfonamido]ethoxy]ethyl)ethyl]carbamoyl]amino)butyl]urea; bis(trifluoroacetic acid)] | B (5-10) | 150 to 200 | 50 to 70 | 50 to 70 | 50 to 70
Cc1cc(S(=O)(=O)NCCOCCOCCNC(=O)NCCCCNC(=O)NCCOCCOCCNS(=O)(=O)c2ccc(O[C@H]3c4cc(Cl)cc(C)c4C[C@@H]3N(C)C)c(C)c2)ccc1O[C@H]1c2cc(Cl)cc(C)c2C[C@@H]1N(C)C [Example 17, 3-[2-(2-[2-[(4-[[(1S,2S)-6-Chloro-2-(dimethylamino)-4-methyl-2,3-dihydro-1H-inden-1-yl]oxy]-3-methylbenzene)sulfonamido]ethoxy]ethoxy)ethyl]-1-[4-([[2-(2-[2-[(4-[[(1S,2S)-6-chloro-2-(dimethylamino)-4-methyl-2,3-dihydro-1H-inden-1-yl]oxy]-3-methylbenzene)sulfonamido]ethoxy]ethoxy)ethyl]carbamoyl]amino)butyl]urea] | B (5-10) | 150 to 200 | 50 to 70 | 50 to 70 | 50 to 70
CN(C)[C@H]1Cc2c(Cl)cc(Cl)cc2[C@@H]1Oc1ccc(S(=O)(=O)NCCOCCOCCNC(=O)NCCCCNC(=O)NCCOCCOCCNS(=O)(=O)c2ccc(O[C@H]3c4cc(Cl)cc(Cl)c4C[C@@H]3N(C)C)c(F)c2)cc1F [Example 23, 3-[2-(2-[2-[(4-[[(1S,2S)-4,6-Dichloro-2-(dimethylamino)-2,3-dihydro-1H-inden-1-yl]oxy]-3-fluorobenzene)sulfonamido]ethoxy]ethoxy)ethyl]-1-[4-([[2-(2-[2-[(4-[[(1S,2S)-4,6-dichloro-2-(dimethylamino)-2,3-dihydro-1H-inden-1-yl]oxy]-3-fluorobenzene)sulfonamido]ethoxy]ethoxy)ethyl]carbamoyl]amino)butyl]urea; bis(trifluoroacetic acid)] | B (5-10) | 150 to 200 | 50 to 70 | 50 to 70 | 50 to 70
Cc1cc(S(=O)(=O)NCCOCCOCCNC(=O)NCCCCNC(=O)NCCOCCOCCNS(=O)(=O)c2ccc(O[C@H]3c4cc(Cl)cc(C#N)c4C[C@@H]3N3CCNCC3)c(C)c2)ccc1O[C@H]1c2cc(Cl)cc(C#N)c2C[C@@H]1N1CCNCC1 [Example 42, 3-[2-(2-[2-[(4-[[(1S,2S)-6-Chloro-4-cyano-2-(piperazin-1-yl)-2,3-dihydro-1H-inden-1-yl]oxy]-3-methylbenzene)sulfonamido]ethoxy]ethoxy)ethyl]-1-[4-([[2-(2-[2-[(4-[[(1S,2S)-6-chloro-4-cyano-2-(piperazin-1-yl)-2,3-dihydro-1H-inden-1-yl]oxy]-3-methylbenzene)sulfonamido]ethoxy]ethoxy)ethyl]carbamoyl]amino)butyl]urea; bis(trifluoroacetic acid)] | B (5-10) | 150 to 200 | < 50 | > 70 | > 70
Cc1cc(S(=O)(=O)NCCOCCOCCNC(=O)NCCCCNC(=O)NCCOCCOCCNS(=O)(=O)c2ccc(O[C@H]3c4cc(Cl)cc(Cl)c4C[C@@H]3N3CCNCC3)c(C)c2)ccc1O[C@H]1c2cc(Cl)cc(Cl)c2C[C@@H]1N1CCNCC1 [Example 32, 3-[2-(2-[2-[(4-[[(1S,2S)-4,6-Dichloro-2-(piperazin-1-yl)-2,3-dihydro-1H-inden-1-yl]oxy]-3-methylbenzene)sulfonamido]ethoxy]ethoxy)ethyl]-1-[4-([[2-(2-[2-[(4-[[(1S,2S)-4,6-dichloro-2-(piperazin-1-yl)-2,3-dihydro-1H-inden-1-yl]oxy]-3-methylbenzene)sulfonamido]ethoxy]ethoxy)ethyl]carbamoyl]amino)butyl]urea; bis(trifluoroacetic acid)] | A (<5) | 150 to 200 | 50 to 70 | > 70 | > 70
